Reference: patent US8362015B2, “Aminoacyl prodrug derivatives and medicaments for treatment of thromboembolic disorders” (Bayer Intellectual Property GmbH, priority 2006, dated 2013)
Structures can show the parent of a compound that is named as a salt.

Legend:
[1] = Determination of the solubility in dilute hydrochloric acid (pH 4); type: physicochemical; details: aqueous buffer, thermodynamic from solid, room temperature, shaken 24 h
Method: The test substance is suspended in water or dilute hydrochloric acid (pH 4). This suspension is shaken at room temperature for 24 h. After ultracentrifugation at 224 000 g for 30 min, the supernatant is diluted with DMSO and analysed by HPLC. A two-point calibration plot of the test compound in DMSO is used for quantification.
Agilent 1100 with DAD (G1315A), quat. pump (G1311A), autosampler CTC HTS PAL, degasser (G1322A) and column thermostat (G1316A); column: Kromasil C18, 60×2.1 mm, 3.5 μm; temperature: 30° C.; eluent A: water+5 ml of perchloric acid/liter, eluent B: acetonitrile; flow rate: 0.7 ml/min; gradient: 0-0.5 min 98% A, 2% B; ramp 0.5-4.5 min 10% A, 90% B; 4.5-6 min 10% A, 90% B; ramp 6.5-6.7 min 98% A, 2% B; 6.7-7.5 min 98% A, 2% B.

[2] = Stability in buffer at various pH values (HPLC, unchanged test substance); type: physicochemical; details: acetonitrile/buffer 1:1
Method: 0.3 mg of the test substance is weighed into a 2 ml HPLC vial and 0.5 ml of acetonitrile is added. The substance is dissolved by putting the sample vessel in an ultrasonic bath for about 10 seconds. Then 0.5 ml of the respective buffer solution is added, and the sample is again treated in the ultrasonic bath.
Buffer solutions employed: • pH 4.0: 1 liter of Millipore water is adjusted to pH 4.0 with 1 N hydrochloric acid; • pH 7.4: 90 g of sodium chloride, 13.61 g of potassium dihydrogen phosphate and 83.35 g of 1 M sodium hydroxide solution are made up to 1 liter with Millipore water and then diluted 1:10.
5 μl portions of the test solution are analysed by HPLC for their content of unchanged test substance every hour over a period of 24 hours at 25° C. The percentage areas of the appropriate peaks are used for quantification.
Agilent 1100 with DAD (G1314A), binary pump (G1312A), autosampler (G1329A), column oven (G1316A), thermostat (G1330A); column: Kromasil 100 C18, 60 mm×2.1 mm, 3.5 μm; column temperature: 30° C.; eluent A: water+5 ml of perchloric acid/liter, eluent B: acetonitrile; gradient: 0-1.0 min 98% A, 2% B→1.0-9.0 min 2% A, 98% B; 9.0-13.0 min 2% A, 98% B; 13.0-13.5 min 98% A, 2% B; 13.5-15.0 98% A, 2% B; flow rate: 0.75 ml/min; UV detection: 210 nm.
The ratios of the peak areas (F) at the respective time points in relation to the peak areas at the starting time are shown in Table 2 for representative exemplary embodiments: […]

| Structure (SMILES) | solubility at 24 h [1] [µg/mL] | % test substance after 4 h [F(t = 4 h) × 100/F(t = 0 h)] ([2]; buffer pH 4, 25° C.) [%] | % test substance after 24 h [F(t = 24 h) × 100/F(t = 0 h)] ([2]; buffer pH 4, 25° C.) [%] | % test substance after 4 h [F(t = 4 h) × 100/F(t = 0 h)] ([2]; buffer pH 7.4, 25° C.) [%] | % test substance after 24 h [F(t = 24 h) × 100/F(t = 0 h)] ([2]; buffer pH 7.4, 25° C.) [%] |
| --- | --- | --- | --- | --- | --- |
| N[C@@H](Cc1c[nH]cn1)C(=O)NCCCCC(=O)N(C[C@H]1CN(c2ccc(N3CCOCC3=O)cc2)C(=O)O1)C(=O)c1ccc(Cl)s1 [Example 12, N-(5-{[(5-Chloro-2-thienyl)carbonyl]({(5S)-2-oxo-3-[4-(3-oxomorpholin-4-yl)phenyl]-1,3-oxazolidin-5-yl}methyl)amino}-5-oxopentyl)-L-histidinamide hydrochloride] | > 3000 | 100 | 101 | 99 | 93 |
| NCC(=O)OCCCCC(=O)N(C[C@H]1CN(c2ccc(N3CCOCC3=O)cc2)C(=O)O1)C(=O)c1ccc(Cl)s1 [Example 2, hydrochloride] |  | 101 | 101 | 99 | 94 |
| O=C(NCCCCC(=O)N(C[C@H]1CN(c2ccc(N3CCOCC3=O)cc2)C(=O)O1)C(=O)c1ccc(Cl)s1)[C@@H]1CCCN1 [Example 11, N-(5-{[(5-Chloro-2-thienyl)carbonyl]({(5S)-2-oxo-3-[4-(3-oxomorpholin-4-yl)phenyl]-1,3-oxazolidin-5-yl}methyl)amino}-5-oxopentyl)-L-prolineamide hydrochloride] |  | 101 | 101 | 100 | 99 |
| NCCCC[C@H](N)C(=O)NCCCCC(=O)N(C[C@H]1CN(c2ccc(N3CCOCC3=O)cc2)C(=O)O1)C(=O)c1ccc(Cl)s1 [Example 14, N-(5-{[(5-Chloro-2-thienyl)carbonyl]({(5S)-2-oxo-3-[4-(3-oxomorpholin-4-yl)phenyl]-1,3-oxazolidin-5-yl}methyl)amino}-5-oxopentyl)-L-lysinamide hydrochloride] | 1900 | 100 | 100 | 98 | 88 |
| NCCCC[C@H](N)C(=O)SCCCCC(=O)N(C[C@H]1CN(c2ccc(N3CCOCC3=O)cc2)C(=O)O1)C(=O)c1ccc(Cl)s1 [Example 6, S-(5-{[(5-Chloro-2-thienyl)carbonyl]({(5S)-2-oxo-3-[4-(3-oxomorpholin-4-yl)phenyl]-1,3-oxazolidin-5-yl}methyl)amino}-5-oxopentyl)(2S)-2,6-diaminohexanethioate dihydrochloride] |  | 99 | 99 | 90 | 53 |
| CC(C)[C@H](N)C(=O)OCCCCC(=O)N(C[C@H]1CN(c2ccc(N3CCOCC3=O)cc2)C(=O)O1)C(=O)c1ccc(Cl)s1 [Example 3, hydrochloride] | > 3500 | 100 | 101 | 100 | 100 |
| NCC(=O)SCCCCC(=O)N(C[C@H]1CN(c2ccc(N3CCOCC3=O)cc2)C(=O)O1)C(=O)c1ccc(Cl)s1 [Example 5, S-(5-{[(5-Chloro-2-thienyl)carbonyl]({(5S)-2-oxo-3-[4-(3-oxomorpholin-4-yl)phenyl]-1,3-oxazolidin-5-yl}methyl)amino}-5-oxopentyl)aminoethanethioate hydrochloride] |  | 100 | 100 | 96 | 84 |
| CC(C)[C@H](N)C(=O)SCCCCC(=O)N(C[C@H]1CN(c2ccc(N3CCOCC3=O)cc2)C(=O)O1)C(=O)c1ccc(Cl)s1 [Example 4, S-(5-{[(5-Chloro-2-thienyl)carbonyl]({(5S)-2-oxo-3-[4-(3-oxomorpholin-4-yl)phenyl]-1,3-oxazolidin-5-yl}methyl)amino}-5-oxopentyl)(2S)-2-amino-3-methylbutanethioate hydrochloride] |  | 100 | 100 | 92 | 77 |
| C[C@H](N)C(=O)SCCCCC(=O)N(C[C@H]1CN(c2ccc(N3CCOCC3=O)cc2)C(=O)O1)C(=O)c1ccc(Cl)s1 [Example 7, S-(5-{[(5-Chloro-2-thienyl)carbonyl]({(5S)-2-oxo-3-[4-(3-oxomorpholin-4-yl)phenyl]-1,3-oxazolidin-5-yl}methyl)amino}-5-oxopentyl)(2S)-2-aminopropanethioate hydrochloride] | > 500 | 100 | 101 | 97 | 84 |
| CC(C)[C@H](N)C(=O)SCCCC(=O)N(C[C@H]1CN(c2ccc(N3CCOCC3=O)cc2)C(=O)O1)C(=O)c1ccc(Cl)s1 [Example 8, S-(5-{[(5-Chloro-2-thienyl)carbonyl]({(5S)-2-oxo-3-[4-(3-oxomorpholin-4-yl)phenyl]-1,3-oxazolidin-5-yl}methyl)amino}-4-oxobutyl)(2S)-2-amino-3-methylbutanethioate hydrochloride] |  | 100 | 100 | 86 | 48 |
